Data: patent US20210308084A1, “AGENT FOR IMPROVING MUSCLE QUALITY” (AJINOMOTO CO., INC., priority 2018, published 2021)

System: mouse-derived muscle cell line C2C12 (myotube cells)
Test: Evaluation of muscle insulin signal (pAkt Ser473/total Akt, Western blotting) in myotubes exposed to palmitic acid (FFA)
Type: cell-based
Conditions: FIG. 2; for muscle insulin signal lowered by FFA (phosphorylation index, [(pAkt/Total Akt) Insulin+]/[(pAkt/Total Akt) Insulin-]): amino acid 1 mM added simultaneously with 0.5 mM palmitic acid (FFA), 100 nM insulin stimulation; for action on muscle insulin signal compared with positive control NAC: amino acid 1 mM versus N-acetylcysteine (NAC) 5 mM, 0.5 mM FFA
Experimental: Using mouse C3H skeletal muscle myoblast (C2C12 cell) (DS Pharma Biomedical Co., Ltd.), the evaluation was performed. Induction of differentiation into myotube cells (Myotubes) was performed using cells with myoblast passage number of 12 to 18. Myoblasts were seeded in a 12-well (diameter=3 cm) plate at 0.3×10^5 to 0.5×10^5/well. After confirmation that the cell proliferation state reached 90% confluent, the medium was replaced with DMEM culture medium supplemented with 2(w/v) % horse serum (HS) and 1(w/v) % penicillin-streptomycin-[…](w/v) % HS, 1(w/v) % […](w/v) % Gln/DMEM), and differentiation into myotube cells (Myotubes) was induced. After confirmation of differentiation into myotube cells (Myotubes), a muscle insulin signal evaluation system was constructed, and the action of each of isoleucine, glycine, and cystine was evaluated using the constructed evaluation system. […] After culturing overnight, the cells were preincubated for about 2 hr in DMEM (BSA/FFA free) with an amino acid concentration of 1/5, stimulated by incubation (15 min-20 min) with 100 nM insulin, and the myotube cells were collected (each n=3). From the collected cells, proteins were extracted with RIPA (Radio-Immunoprecipitation Assay) buffer (Cell Signaling Technologies Inc.), adjusted to a final protein concentration of 0.5 mg/mL, and used as samples. The expression levels of phosphorylated Akt (pAkt) (Ser473) and [NT] in the above-mentioned sample were quantified by the Western blotting (WB) method using anti-phosphorylated Akt (pAkt) (Ser473) antibody (#92715; Cell Signaling Technologies Inc.) and anti-[NT] antibody (#9272S; Cell Signaling Technologies Inc.). The expression level of each protein was quantified using Western blot-chemiluminescent imaging system (Fusion FX) (Vilber-Lourmat Inc.). Each amino acid was added simultaneously with FFA, and the muscle quality-improving effect was examined with the recovery of the muscle insulin signal as an index. The final concentration of each amino acid was adjusted to 1 mM. As a positive control, an antioxidative active substance N-acetylcysteine (NAC) 5 mM was used. From the measurement results of the expression levels of phosphorylated Akt (Ser473) and total Akt, the ratio of phosphorylated Akt and total Akt with insulin stimulation to the ratio of phosphorylated Akt and total Akt without insulin stimulation [(pAkt/Total Akt) Insulin+]/[(pAkt/Total Akt) Insulin-] was determined and shown in FIG. 2 as the phosphorylation index (stimulation index). In FIG. 2, the phosphorylation index is shown as mean±standard error for each sample.

Row | SMILES | muscle insulin signal lowered by FFA (phosphorylation index, [(pAkt/Total Akt) Insulin+]/[(pAkt/Total Akt) Insulin-]) | action on muscle insulin signal compared with positive control NAC
1 | N[C@@H](CSSC[C@H](N)C(=O)O)C(=O)O [cystine, L-cystine] | restore the muscle insulin signal lowered by FFA | equal to or higher than that of NAC
2 | NCC(=O)O [glycine] | restore the muscle insulin signal lowered by FFA | equal to or higher than that of NAC
3 | CC[C@H](C)[C@H](N)C(=O)O [isoleucine, L-isoleucine] | restore the muscle insulin signal lowered by FFA | equal to or higher than that of NAC
